# Data reported in US11617726B2, “Method for preventing, treating, or ameliorating a microbial infection” (priority 2018, dated 2023).
# System: Acinetobacter baumannii isolates
# Test: Antimicrobial susceptibility test, disc diffusion method (CLSI M100-S24)
# Type: cell-based
# Design: key to Inhibition zone: “NZ” indicated that no zone of inhibition was observed
# Conditions: for susceptibility category: LEV disc; for Inhibition zone: disc diffusion
# Outline: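 Disc diffusion per CLSI M100-S24 on 33 MDR clinical A. baumannii isolates from burn wards; 0.5 McFarland inoculum swabbed onto Mueller-Hinton agar, incubated aerobically 35-37° C, 18-20 h. Zone diameters measured to nearest mm and categorized S/I/R by CLSI breakpoints.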
compound,measurement,setting,value
"C[C@H]1COc2c(N3CCN(C)CC3)c(F)cc3c(=O)c(C(=O)O)cn1c23 [LEV, Levofloxacin]",susceptibility category,isolate AB1,S (Sensitive ≥17)
same,Inhibition zone,isolate AB1,30 mm
same,susceptibility category,isolate AB2,S (Sensitive ≥17)
same,Inhibition zone,isolate AB2,30 mm
same,susceptibility category,isolate AB3,S (Sensitive ≥17)
same,Inhibition zone,isolate AB3,29 mm
same,susceptibility category,isolate AB4,S (Sensitive ≥17)
same,Inhibition zone,isolate AB4,30 mm
same,susceptibility category,isolate AB5,S (Sensitive ≥17)
same,Inhibition zone,isolate AB5,19 mm
same,susceptibility category,isolate AB6,S (Sensitive ≥17)
same,Inhibition zone,isolate AB6,21 mm
same,susceptibility category,isolate AB7,I (Intermediate 14-16)
same,Inhibition zone,isolate AB7,14 mm
same,susceptibility category,isolate AB8,I (Intermediate 14-16)
same,Inhibition zone,isolate AB8,15 mm
same,susceptibility category,isolate AB9,S (Sensitive ≥17)
same,Inhibition zone,isolate AB9,28 mm
same,susceptibility category,isolate AB10,I (Intermediate 14-16)
same,Inhibition zone,isolate AB10,14 mm
same,susceptibility category,isolate AB11,R (Resistant ≤13)
same,Inhibition zone,isolate AB11,11 mm
same,susceptibility category,isolate AB12,R (Resistant ≤13)
same,Inhibition zone,isolate AB12,10 mm
same,susceptibility category,isolate AB13,R (Resistant ≤13)
same,Inhibition zone,isolate AB13,8 mm
same,susceptibility category,isolate AB14,R (Resistant ≤13)
same,Inhibition zone,isolate AB14,11 mm
same,susceptibility category,isolate AB15,I (Intermediate 14-16)
same,Inhibition zone,isolate AB15,15 mm
same,susceptibility category,isolate AB16,R (Resistant ≤13)
same,Inhibition zone,isolate AB16,NZ
same,susceptibility category,isolate AB17,R (Resistant ≤13)
same,Inhibition zone,isolate AB17,11 mm
same,susceptibility category,isolate AB18,R (Resistant ≤13)
same,Inhibition zone,isolate AB18,13 mm
same,susceptibility category,isolate AB19,R (Resistant ≤13)
same,Inhibition zone,isolate AB19,11 mm
same,susceptibility category,isolate AB20,R (Resistant ≤13)
same,Inhibition zone,isolate AB20,13 mm
same,susceptibility category,isolate AB21,I (Intermediate 14-16)
same,Inhibition zone,isolate AB21,14 mm
same,susceptibility category,isolate AB22,I (Intermediate 14-16)
same,Inhibition zone,isolate AB22,14 mm
same,susceptibility category,isolate AB23,R (Resistant ≤13)
same,Inhibition zone,isolate AB23,11 mm
same,susceptibility category,isolate AB24,R (Resistant ≤13)
same,Inhibition zone,isolate AB24,12 mm
same,susceptibility category,isolate AB25,I (Intermediate 14-16)
same,Inhibition zone,isolate AB25,14 mm
same,susceptibility category,isolate AB26,R (Resistant ≤13)
same,Inhibition zone,isolate AB26,NZ
same,susceptibility category,isolate AB27,R (Resistant ≤13)
same,Inhibition zone,isolate AB27,8 mm
same,susceptibility category,isolate AB28,I (Intermediate 14-16)
same,Inhibition zone,isolate AB28,15 mm
same,susceptibility category,isolate AB29,I (Intermediate 14-16)
same,Inhibition zone,isolate AB29,15 mm
same,susceptibility category,isolate AB30,I (Intermediate 14-16)
same,Inhibition zone,isolate AB30,15 mm
same,susceptibility category,isolate AB31,R (Resistant ≤13)
same,Inhibition zone,isolate AB31,10 mm
same,susceptibility category,isolate AB32,S (Sensitive ≥17)
same,Inhibition zone,isolate AB32,18 mm
same,susceptibility category,isolate AB33,S (Sensitive ≥17)
same,Inhibition zone,isolate AB33,30 mm
"NC[C@@H]1O[C@H](O[C@H]2[C@@H](O)[C@H](O[C@@H]3[C@@H](O)[C@H](N)C[C@H](N)[C@H]3O[C@H]3O[C@H](CN)[C@@H](O)[C@H](O)[C@H]3N)O[C@@H]2CO)[C@H](N)[C@@H](O)[C@@H]1O [NEO, Neomycin]",Inhibition zone,isolate AB1,23 mm
same,Inhibition zone,isolate AB2,20 mm
same,Inhibition zone,isolate AB3,22 mm
same,Inhibition zone,isolate AB4,27 mm
same,Inhibition zone,isolate AB5,10 mm
same,Inhibition zone,isolate AB6,14 mm
same,Inhibition zone,isolate AB7,12 mm
same,Inhibition zone,isolate AB8,11 mm
same,Inhibition zone,isolate AB9,20 mm
same,Inhibition zone,isolate AB10,NZ
same,Inhibition zone,isolate AB11,NZ
same,Inhibition zone,isolate AB12,15 mm
same,Inhibition zone,isolate AB13,9 mm
same,Inhibition zone,isolate AB14,NZ
same,Inhibition zone,isolate AB15,13 mm
same,Inhibition zone,isolate AB16,NZ
same,Inhibition zone,isolate AB17,20 mm
same,Inhibition zone,isolate AB18,15 mm
same,Inhibition zone,isolate AB19,13 mm
same,Inhibition zone,isolate AB20,NZ
same,Inhibition zone,isolate AB21,13 mm
same,Inhibition zone,isolate AB22,7 mm
same,Inhibition zone,isolate AB23,10 mm
same,Inhibition zone,isolate AB24,14 mm
same,Inhibition zone,isolate AB25,8 mm
same,Inhibition zone,isolate AB26,20 mm
same,Inhibition zone,isolate AB27,9 mm
same,Inhibition zone,isolate AB28,15 mm
same,Inhibition zone,isolate AB29,15 mm
same,Inhibition zone,isolate AB30,15 mm
same,Inhibition zone,isolate AB31,8 mm
same,Inhibition zone,isolate AB32,10 mm
same,Inhibition zone,isolate AB33,20 mm
"CCN1CCN(C(=O)N[C@@H](C(=O)N[C@@H]2C(=O)N3[C@@H]2SC(C)(C)[C@@H]3C(=O)O)c2ccccc2)C(=O)C1=O [PIP, Piperacillin]",Inhibition zone,isolate AB1,21 mm
same,Inhibition zone,isolate AB2,20 mm
same,Inhibition zone,isolate AB3,32 mm
same,Inhibition zone,isolate AB4,21 mm
same,Inhibition zone,isolate AB5,NZ
same,Inhibition zone,isolate AB6,18 mm
same,Inhibition zone,isolate AB7,NZ
same,Inhibition zone,isolate AB8,NZ
same,Inhibition zone,isolate AB9,24 mm
same,Inhibition zone,isolate AB10,NZ
same,Inhibition zone,isolate AB11,NZ
same,Inhibition zone,isolate AB12,NZ
same,Inhibition zone,isolate AB13,NZ
same,Inhibition zone,isolate AB14,NZ
same,Inhibition zone,isolate AB15,NZ
same,Inhibition zone,isolate AB16,16 mm
same,Inhibition zone,isolate AB17,15 mm
same,Inhibition zone,isolate AB18,8 mm
same,Inhibition zone,isolate AB19,NZ
same,Inhibition zone,isolate AB20,NZ
same,Inhibition zone,isolate AB21,NZ
same,Inhibition zone,isolate AB22,NZ
same,Inhibition zone,isolate AB23,NZ
same,Inhibition zone,isolate AB24,NZ
same,Inhibition zone,isolate AB25,10 mm
same,Inhibition zone,isolate AB26,NZ
same,Inhibition zone,isolate AB27,8 mm
same,Inhibition zone,isolate AB28,7 mm
same,Inhibition zone,isolate AB29,NZ
same,Inhibition zone,isolate AB30,8 mm
same,Inhibition zone,isolate AB31,8 mm
same,Inhibition zone,isolate AB32,8 mm
same,Inhibition zone,isolate AB33,22 mm
"CN(C)[C@@H]1C(O)=C(C(N)=O)C(=O)[C@@]2(O)C(O)=C3C(=O)c4c(O)cccc4[C@@](C)(O)[C@H]3C[C@@H]12 [TET, Tetracycline]",Inhibition zone,isolate AB1,NZ
same,Inhibition zone,isolate AB2,22 mm
same,Inhibition zone,isolate AB3,22 mm
same,Inhibition zone,isolate AB4,21 mm
same,Inhibition zone,isolate AB5,NZ
same,Inhibition zone,isolate AB6,NZ
same,Inhibition zone,isolate AB7,21 mm
same,Inhibition zone,isolate AB8,26 mm
same,Inhibition zone,isolate AB9,23 mm
same,Inhibition zone,isolate AB10,NZ
same,Inhibition zone,isolate AB11,NZ
same,Inhibition zone,isolate AB12,NZ
same,Inhibition zone,isolate AB13,NZ
same,Inhibition zone,isolate AB14,24 mm
same,Inhibition zone,isolate AB15,19 mm
same,Inhibition zone,isolate AB16,NZ
same,Inhibition zone,isolate AB17,21 mm
same,Inhibition zone,isolate AB18,20 mm
same,Inhibition zone,isolate AB19,17 mm
same,Inhibition zone,isolate AB20,28 mm
same,Inhibition zone,isolate AB21,19 mm
same,Inhibition zone,isolate AB22,20 mm
same,Inhibition zone,isolate AB23,23 mm
same,Inhibition zone,isolate AB24,19 mm
same,Inhibition zone,isolate AB25,25 mm
same,Inhibition zone,isolate AB26,NZ
same,Inhibition zone,isolate AB27,8 mm
same,Inhibition zone,isolate AB28,20 mm
same,Inhibition zone,isolate AB29,19 mm
same,Inhibition zone,isolate AB30,20 mm
same,Inhibition zone,isolate AB31,NZ
same,Inhibition zone,isolate AB32,28 mm
same,Inhibition zone,isolate AB33,24 mm
Gentamicin,Inhibition zone,isolate AB1,24 mm
same,Inhibition zone,isolate AB2,20 mm
same,Inhibition zone,isolate AB3,24 mm
same,Inhibition zone,isolate AB4,22 mm
same,Inhibition zone,isolate AB5,15 mm
same,Inhibition zone,isolate AB6,26 mm
same,Inhibition zone,isolate AB7,NZ
same,Inhibition zone,isolate AB8,NZ
same,Inhibition zone,isolate AB9,21 mm
same,Inhibition zone,isolate AB10,NZ
same,Inhibition zone,isolate AB11,NZ
same,Inhibition zone,isolate AB12,12 mm
same,Inhibition zone,isolate AB13,NZ
same,Inhibition zone,isolate AB14,NZ
same,Inhibition zone,isolate AB15,20 mm
same,Inhibition zone,isolate AB16,18 mm
same,Inhibition zone,isolate AB17,24 mm
same,Inhibition zone,isolate AB18,17 mm
same,Inhibition zone,isolate AB19,20 mm
same,Inhibition zone,isolate AB20,NZ
same,Inhibition zone,isolate AB21,17 mm
same,Inhibition zone,isolate AB22,NZ
same,Inhibition zone,isolate AB23,NZ
same,Inhibition zone,isolate AB24,19 mm
same,Inhibition zone,isolate AB25,19 mm
same,Inhibition zone,isolate AB26,NZ
same,Inhibition zone,isolate AB27,8 mm
same,Inhibition zone,isolate AB28,20 mm
same,Inhibition zone,isolate AB29,20 mm
same,Inhibition zone,isolate AB30,20 mm
same,Inhibition zone,isolate AB31,8 mm
same,Inhibition zone,isolate AB32,NZ
same,Inhibition zone,isolate AB33,20 mm
